Assay results from PubChem BioAssay (NCI).
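Dose response: 5 concentrations. Exposure: 48 h. Format: 96-well plates. Endpoint: linear interpolation; highest concentration if not reached. GI50 = concentration required for 50% inhibition of growth. The concentration for full growth arrest is given as TGI.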

Tests used:
Assay in all cases: inhibition of tumour cell growth, NCI panel, 48 h
[1] = test system: HOP-62 NSCLC
[2] = test system: TK-10 renal
[3] = test system: OVCAR-8 ovarian
[4] = test system: SK-MEL-2 melanoma
[5] = test system: SF-295 CNS
[6] = test system: LOX IMVI melanoma
[7] = test system: CAKI-1 renal
[8] = test system: SN12C renal
[9] = test system: UACC-62 melanoma
[10] = test system: DU-145 prostate

SMILES	TGI [1]	TGI [2]	TGI [3]	TGI [4]	TGI [5]	TGI [6]	TGI [7]	TGI [8]	TGI [9]	TGI [10]	GI50 [1]	GI50 [2]	GI50 [4]	GI50 [5]	GI50 [6]	GI50 [8]	GI50 [3]	GI50 [7]	GI50 [9]	GI50 [10]
CCCCC#C[I+]c1ccccc1	37.6 µM	28.6 µM	32.5 µM	34.1 µM	43.5 µM	26.9 µM	27.1 µM	28.3 µM	33 µM											
O=C1/C(=C\c2ccccc2)C(NC2CCCCC2)c2ccccc21 (stereo not given)	7.21 µM	2.59 µM	6.09 µM	5.25 µM	33.5 µM	3.33 µM	2.83 µM	4.37 µM	6.2 µM	3.09 µM										
COC(=O)c1ccccc1CC1Cc2ccc3c(c2C1=O)CCCC3 (stereo not given)	> 100 µM	> 100 µM	> 100 µM	> 76.3 µM	> 100 µM	> 87 µM	> 100 µM	> 100 µM	> 100 µM	> 100 µM										
COCO[C@@H]1C[C@H]2C(=O)Nc3ccccc3C(=O)N2C1	90.1 µM	> 100 µM	> 100 µM	> 100 µM	> 100 µM	> 100 µM	> 100 µM	> 100 µM	> 100 µM	> 100 µM										
CCOC(=O)c1cn2c(n1)sc1cccc(C)c12	> 100 µM	> 100 µM	> 100 µM		> 100 µM	> 100 µM	> 100 µM		> 100 µM	> 100 µM										
CC(C)(C)OC(=O)N[C@H]1CCN(C2CCCCC2)C1=O	> 100 µM	> 100 µM	> 100 µM	> 100 µM		> 100 µM		> 100 µM	> 100 µM	> 100 µM										
Nc1nc(SCCc2ccccc2)c2[nH]cnc2n1	> 100 µM	67.9 µM	> 100 µM	82.9 µM	> 100 µM	> 100 µM	> 100 µM	> 100 µM	> 100 µM	> 100 µM										
O=C(NC(=O)c1ccccc1[N+](=O)[O-])Nc1ccc(Oc2ncc(Br)cn2)c(Cl)c1			0.0736 µM		0.0465 µM	> 100 µM				0.0902 µM	0.0454 µM	10.5 µM	0.321 µM	< 0.0184 µM	< 0.0208 µM	< 0.027 µM				
C[C@@H]1CC[C@]2(C(=O)O)CC[C@]3(C)C(=CC[C@@H]4[C@@]5(C)CC[C@H](O)C(C)(C)[C@@H]5CC[C@]43C)[C@@H]2[C@]1(C)O		27.5 µM	37.3 µM	31.8 µM	10.6 µM	29.5 µM	27.3 µM	30.1 µM	10.1 µM	21.1 µM										
O=C1CCCSC(=O)N1Cc1ccccc1	> 100 µM	> 100 µM	> 100 µM	> 100 µM	> 100 µM	> 100 µM	> 100 µM	> 100 µM	> 100 µM	> 100 µM										
Cc1n[nH]c(=O)n1/N=C/c1ccc(Cl)cc1	> 100 µM		> 100 µM		> 100 µM		> 100 µM	> 100 µM	> 100 µM	> 100 µM										
COc1cccc(C(=O)O[C@H]2[C@@H]3[C@]4(OC(C)=O)CO[C@@H]4C[C@H](O)[C@@]3(C)C(=O)[C@H](OC(C)=O)C3=C(C)[C@@H](OC(=O)[C@H](O)[C@@H](NC(=O)OC(C)(C)C)c4ccco4)C[C@]2(O)C3(C)C)c1	> 32.7 µM	27.4 µM	> 14.4 µM	16.9 µM	0.151 µM	> 15.6 µM	> 37.5 µM	> 37.5 µM	> 27.6 µM	> 37.5 µM										
COc1cc2c(c(OC)c1OC)C(=O)[C@@H]1[C@H]2N1C(N)=O	> 100 µM	> 100 µM	> 100 µM		> 100 µM	> 100 µM	> 100 µM	> 100 µM	68.2 µM	> 100 µM										
CCC(C(=O)O)c1ccc(OC)cc1 (stereo not given)	> 100 µM	> 100 µM		> 100 µM	> 100 µM	> 100 µM	> 100 µM	> 100 µM	> 100 µM											
O=C1/C(=C/c2ccccc2)N=C2Sc3c(nc[nH]c3=O)N12	> 100 µM	> 100 µM	> 100 µM	> 100 µM	> 100 µM	> 100 µM	> 100 µM	> 100 µM		> 100 µM										
COc1cc(C(=O)N(C(=S)OCc2ccccn2)c2ccccc2)cc(OC)c1OC		> 100 µM	> 100 µM	> 100 µM		> 100 µM	> 100 µM	> 100 µM	> 100 µM	> 100 µM										
COc1ccc(COCCOCc2nc(C#N)c(N)o2)cc1	> 100 µM	> 100 µM	> 100 µM	> 100 µM	> 100 µM	> 100 µM	> 100 µM	> 100 µM	> 100 µM	> 100 µM										
Cc1ccc(C(=O)O)cc1S(=O)(=O)Nn1cnc2ccc(S(=O)(=O)Nc3ccccc3C(=O)O)cc2c1=O	> 100 µM	> 100 µM	> 100 µM	> 100 µM	> 100 µM	> 100 µM	> 100 µM	> 100 µM	> 100 µM	> 100 µM										
O=C1C=CC(=O)c2c1ccc1c3ccccc3n(CCCCCCCCCCCCn3c4ccccc4c4ccc5c(c43)C(=O)C=CC5=O)c21	> 100 µM	> 100 µM	> 100 µM	> 100 µM	> 100 µM	> 100 µM	> 100 µM	> 100 µM	> 100 µM	> 100 µM										
O=[N+]([O-])c1ccc2c(c1)c(OCc1ccccc1)nn2Cc1ccccc1	> 100 µM	> 100 µM	> 100 µM	> 100 µM	> 100 µM	> 100 µM	> 100 µM	> 100 µM	> 100 µM	> 100 µM										
CC(C)=CCc1c2c(c3occ(-c4ccc(O)cc4)c(=O)c3c1O)CC(C(C)(C)O)O2 (stereo not given)	33.6 µM	30.1 µM	36.2 µM	28.1 µM	25 µM	30.4 µM	35.7 µM	38.5 µM	30 µM	29.4 µM										
C=CCN1C[C@H](C)N([C@H](c2ccc(C(=O)NC(CC)CC)cc2)c2cccc(OC)c2)C[C@H]1C	> 100 µM	> 100 µM	> 100 µM	46.1 µM	> 100 µM	58.6 µM	65.1 µM	> 100 µM	51.1 µM	> 100 µM										

SMILES	TGI [1]	TGI [2]	TGI [3]	TGI [4]	TGI [5]	TGI [6]	TGI [7]	TGI [8]	TGI [9]	TGI [10]	GI50 [1]	GI50 [2]	GI50 [4]	GI50 [5]	GI50 [6]	GI50 [8]	GI50 [3]	GI50 [7]	GI50 [9]	GI50 [10]
COc1ccc(-c2cc(O)c3nc4ccccc4n3c2)cc1	> 100 µM	> 100 µM	> 100 µM		> 100 µM	> 100 µM	> 100 µM	> 100 µM	> 100 µM	> 100 µM										
Nn1c(-c2ccccc2)nn(C(=O)c2ccccc2)c1=O	> 100 µM	> 100 µM	> 100 µM		> 100 µM	> 100 µM		> 100 µM		> 100 µM										
Cc1cn2c(/C=N/N=C(N)N)c(-c3cccc([N+](=O)[O-])c3)nc2s1		3.92 µM	3.7 µM		3.3 µM	2.22 µM	6.06 µM	3.08 µM	3.07 µM	3.27 µM										
C1CN(c2nc3c(nnc4nc(N5CCOCC5)sc43)s2)CCO1	> 100 µM	> 100 µM	> 100 µM	> 100 µM	> 100 µM	> 100 µM	> 100 µM	> 100 µM	> 100 µM	> 100 µM										
O=C(CCN1CCCCC1)C(=Cc1ccccc1)C(=O)CCN1CCCCC1	> 100 µM		> 58.1 µM	> 100 µM	> 100 µM	> 100 µM	> 100 µM	> 100 µM	> 100 µM						3.39 µM	3.52 µM	2.56 µM	80.4 µM	8.82 µM	
C=CC1(C)CCC2C(=CCC3C2(C)CC(O)C(O)C3(C)COC2OC(C(=O)O)C(O)C(O)C2O)C1 (stereo not given) (tested in a mixture with another compound)	> 100 µM	> 100 µM	> 100 µM	> 100 µM	> 100 µM	> 100 µM	> 100 µM	> 100 µM	> 100 µM	> 100 µM										
CCOC(=O)c1csc(NC(=O)CN2CCOCC2)n1	> 100 µM	> 100 µM	> 100 µM	> 100 µM	> 100 µM	> 100 µM	> 100 µM		> 100 µM	> 100 µM										
O=c1c2cc([N+](=O)[O-])cnc2sn1-c1ccc([N+](=O)[O-])cc1	> 100 µM	> 100 µM	> 100 µM	88.1 µM	> 100 µM	49.4 µM		> 100 µM	> 100 µM	> 100 µM										
COc1ccc(C2CC(c3c(O)ccc4ccccc34)=NN2C(C)=O)cc1OC (stereo not given)	94.4 µM	> 100 µM	> 100 µM	52.1 µM	> 100 µM		> 100 µM	> 100 µM	29.7 µM	92 µM										
S=C1Nc2ccccc2SC1c1ccccc1 (stereo not given)	55.2 µM	> 100 µM	> 100 µM		> 100 µM	> 100 µM	> 100 µM	> 100 µM	> 100 µM	> 100 µM										
CC1CCC(n2c3cnccc3c3cnc(Nc4ccc5c(n4)CCN(C(=O)CO)C5)nc32)CC1 (stereo not given)				> 100 µM		> 100 µM	> 100 µM						> 100 µM		0.496 µM			0.536 µM		
O=C1c2ccccc2-c2c1c1ccccc1c(=O)n2CCNCCNCCNCCn1c2c(c3ccccc3c1=O)C(=O)c1ccccc1-2	2.45 µM				7.58 µM	0.572 µM	4.19 µM		1.54 µM	1.76 µM	0.0483 µM			1.4 µM	0.0709 µM			1.44 µM	0.379 µM	0.33 µM
COc1ccc2c(c1)/C(=C/CCN(C)C)c1ccccc1S2		> 100 µM	> 100 µM		> 100 µM	> 100 µM		> 100 µM		> 100 µM										
COC(=O)c1c(C)cccc1C1CN=NC12Cc1ccc(C)cc1C2=O (stereo not given)	> 100 µM	> 100 µM	> 100 µM		> 100 µM	> 100 µM	> 100 µM	> 100 µM	78.5 µM	> 100 µM										
O=C1CCCc2cc3c(cc21)CC1(Cc2ccccc2C1)C3	32.6 µM	> 100 µM	43.7 µM	> 100 µM	21.5 µM	28.6 µM		41 µM	> 100 µM											
C[C@]12CCC(O)CC1=CC[C@@H]1[C@@H]2CC[C@]2(C)C(=O)[C@H](n3ccnc3)C[C@@H]12 (stereo not given in full)		> 100 µM	> 100 µM	> 100 µM	> 100 µM	> 100 µM	> 100 µM	> 100 µM	> 100 µM	> 100 µM										
CC(C)CCS(=O)(=O)OCCCCOS(=O)(=O)CCC(C)C	26.9 µM	> 100 µM	> 100 µM		> 100 µM	> 100 µM		> 100 µM	> 100 µM											
N#Cc1c(-c2ccccc2)/c(=C\Nc2cccc(C(F)(F)F)c2)c(=O)n2c1nc1ccccc12	> 100 µM	> 100 µM	51.5 µM	> 100 µM	> 100 µM	> 100 µM	14.2 µM	50.5 µM												
COc1ccc2cc(NC(=O)N/N=C\c3ccc([N+](=O)[O-])cc3)ccc2c1	48.5 µM		87.3 µM	> 100 µM	> 100 µM	> 100 µM	> 100 µM	> 100 µM	> 100 µM	> 100 µM										
C=C(C)C(=O)OC1C/C(CO)=C\C(O)C/C(C)=C/C2OC(=O)C(=C)C21 (stereo not given)	> 100 µM	41.2 µM	49.5 µM	36.6 µM	> 100 µM	35 µM	58.7 µM	38.8 µM	39.1 µM											
Cc1ccc(N=NC(=Nc2ccccc2)c2ccc(N(CCC#N)CCC#N)cc2)cc1	> 100 µM	74.9 µM	> 100 µM	48 µM	92.4 µM		> 100 µM	> 100 µM	58.9 µM	> 100 µM										
